Assay results as given in PubChem BioAssay (NCI).
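96-well plates; 48 h exposure; 5 concentrations. Endpoints by linear interpolation between flanking doses. Not reached: highest tested concentration assigned. Abbreviation: GI50, concentration required for 50% inhibition of growth. TGI: concentration producing complete growth inhibition.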

Assays:
Test in all cases: DTP human tumour cell line panel, 48 h
[1] = test system: DMS 273 small cell lung
[2] = test system: LXFL 529 NSCLC
[3] = test system: MCF7 breast

Row | SMILES | TGI [1] [µM] | TGI [2] [µM] | GI50 [3] [µM] | TGI [3] [µM]
1 | CCOC(=O)c1ncoc1[C@H]1COC(C)(C)O1 | > 100 | > 100 | – | –
2 | COc1ccc(/C=C2\CN(C(=O)CCN3CCC(=NO)CC3)C/C(=C\c3ccc(OC)cc3)C2=O)cc1 | – | – | 0.619 | 4.86
